Source: patent US11512053B2, “Arginine methyltransferase inhibitors and uses thereof” (priority 2013, dated 2022)
Where a name gives a salt, the structure may show the parent alone. Read-outs that look alike come from different tables or passages of the source.

Legend:
[1] = target: full-length human PRMT8 isoform 1 (Homo sapiens, UniProt Q9NR22); test: PRMT8 Biochemical Assay (3H-SAM Flashplate, peptide substrate); details: read-out: Biochemical IC50 PRMT8
Outline: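 Scintillation Flashplate capture of biotinylated histone H4 (31-45) peptide (150 nM) methylated by 1.5 nM PRMT8 using 3H-SAM (50 nM) with unlabelled SAM (550 nM); enzyme and compound preincubated 30 min, room temperature, in Bicine pH 7.6 buffer with TCEP, BSG, Tween 20 and 2% DMSO. Stopped with excess cold SAM (400 uM); IC50 from % inhibition, min control 1 mM SAH.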

[2] = tested on: mono-methyl arginine in RKO cells; test: RKO Methylation Assay, In Cell Western (ICW) for detection of mono-methyl arginine and DNA content; type: cell-based; details: Homo sapiens, RKO, 72 h, RKO cells, read-out: In Cell Western EC30
Outline: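 RKO cells were treated with compound for 72 hours at 37 °C, methanol-fixed and stained overnight at 4 °C with anti-mono-methyl arginine (1:200), with DRAQ5 for DNA. Odyssey 800/700 nm intensity ratio was normalized to DMSO and 20 μM reference-compound controls. EC30 from triplicate nine-point curves.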

[3] = single experiment or average of multiple experiments
[4] = 72 hours compound incubation, mono-methyl arginine signal normalised to DNA content (DRAQ5), percent activation vs 20 μM reference compound
[5] = 72 hours incubation, mono-methyl arginine signal normalised to DNA content, single experiment or average of multiple experiments

Chain of full-length human PRMT8 isoform 1 (Q9NR22 whole entry, canonical isoform): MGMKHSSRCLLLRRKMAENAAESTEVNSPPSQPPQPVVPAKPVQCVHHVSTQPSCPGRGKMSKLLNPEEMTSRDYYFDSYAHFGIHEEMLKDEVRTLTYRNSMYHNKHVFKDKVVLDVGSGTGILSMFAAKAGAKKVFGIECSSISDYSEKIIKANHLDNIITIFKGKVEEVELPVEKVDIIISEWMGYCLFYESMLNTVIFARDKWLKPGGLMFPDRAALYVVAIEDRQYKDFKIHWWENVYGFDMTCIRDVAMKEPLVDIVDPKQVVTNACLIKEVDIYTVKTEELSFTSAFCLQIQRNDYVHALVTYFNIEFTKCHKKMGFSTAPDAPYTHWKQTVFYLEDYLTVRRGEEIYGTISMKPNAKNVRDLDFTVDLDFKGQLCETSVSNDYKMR

SMILES	IC50 [1]	IC50 [1, 3]	EC30 [2, 4]	EC30 [2, 5]
CCOC[C@H]1CC(c2n[nH]cc2CN(C)CCNC)C[C@H](COCC)C1 (some centres unmarked) [Compound 188]	1010 to 3000 nM	1540 nM		
CCOC[C@@H]1C[C@H](COCC)C[C@H](c2n[nH]cc2CN(C)CCNC)C1 [Compound 189]	101 to 1000 nM	478 nM	3010 to 12000 nM	6620 nM
CNCCN(C)Cc1c[nH]nc1C1CCC(=O)N(CCCOC)C1 (centres unmarked) [Compound 190]	101 to 1000 nM	352 nM	3010 to 12000 nM	6620 nM
CNCCN(C)Cc1c[nH]nc1C1CCC(=O)N(Cc2ccc(C(F)(F)F)cc2)C1 (centres unmarked) [Compound 191]	101 to 1000 nM	152 nM	3010 to 12000 nM	9250 nM
CNCCN(C)Cc1c[nH]nc1[C@H]1CC[C@H](N(CC2CCOCC2)C(=O)CC(C)C)CC1 [Compound 192]	101 to 1000 nM	459 nM	3010 to 12000 nM	9250 nM
CNCCN(C)Cc1c[nH]nc1[C@H]1CC[C@H](N(CC(C)C)C(=O)CC2CCOCC2)CC1 [Compound 193]	< 100 nM	68.8 nM	< 3000 nM	1440 nM
CNCCN(C)Cc1c[nH]nc1C1CCC(=O)CC1 [Compound 194]	< 100 nM	35.3 nM	< 3000 nM	1180 nM
CCN(C(=O)CC1CCOCC1)[C@H]1CC[C@H](c2n[nH]cc2CN(C)CCNC)CC1 [Compound 195]	< 100 nM	35.6 nM	3010 to 12000 nM	4890 nM
CCN(C(=O)CC1CCOCC1)[C@H]1CC[C@@H](c2n[nH]cc2CN(C)CCNC)CC1 [Compound 196]	101 to 1000 nM	415 nM	3010 to 12000 nM	4890 nM
CNCCN(C)Cc1c[nH]nc1[C@H]1CC[C@]2(CCN(Cc3cc(F)cc(F)c3)C2=O)CC1 [Compound 197]	< 100 nM	15.6 nM	< 3000 nM	406 nM
CNCCN(C)Cc1c[nH]nc1[C@H]1CC[C@]2(CCCO2)OC1 [Compound 198]	3010 to 10000 nM	≥ 10000 nM	< 3000 nM	406 nM
CNCCN(C)Cc1c[nH]nc1C1CCC2(CCCC2)OC1 (centres unmarked) [Compound 199]	< 100 nM	38.3 nM	< 3000 nM	802 nM
CNCCN(C)Cc1n[nH]cc1[C@H]1CC[C@@]2(CC1)CC(C)(C)CO2 [Compound 200, Methyl[2-(methylamino)ethyl]([4-[(5S,8S)-3,3-dimethyl-1-oxaspiro[4.5]decan-8-yl]-1H-pyrazol-3-yl]methyl)amine trifluoroacetic acid salt]	< 100 nM		< 3000 nM	20.3 nM
CNCCN(C)Cc1n[nH]cc1[C@H]1CC[C@]2(CC1)CC(C)(C)CO2 [Compound 201]	< 100 nM		< 3000 nM	155 nM
CCOCC1CC(c2n[nH]cc2CN(C)CCNC)CCC1(C)C (centres unmarked) [Compound 202]	< 100 nM	26.9 nM	< 3000 nM	327 nM
CNCCN(C)Cc1n[nH]cc1[C@H]1CC[C@H](C(=O)NCCC(C)C)CC1 [Compound 203]	< 100 nM	84.4 nM	< 3000 nM	327 nM
CNCCN(C)Cc1c[nH]nc1[C@H]1CC[C@@H](C(=O)NCCC(C)C)CC1 [Compound 204]	< 100 nM	51.6 nM	< 3000 nM	1550 nM
CNCCN(C)Cc1cn(C)nc1[C@H]1CC[C@@]2(CC1)CC(C)(C)CO2 [Compound 205, Methyl([1-methyl-3-[(5S,8S)-3,3-dimethyl-1-oxaspiro[4.5]decan-8-yl]-1H-pyrazol-4-yl]methyl)[2-(methylamino)ethyl]amine hydrochloride]	< 100 nM	15.4 nM	< 3000 nM	14.4 nM

SMILES	IC50 [1]	IC50 [1, 3]	EC30 [2, 4]	EC30 [2, 5]
CNCCN(C)Cc1cn(C)nc1[C@H]1CC[C@]2(CC1)CC(C)(C)CO2 [Compound 206, Methyl([1-methyl-3-[(5R,8S)-3,3-dimethyl-1-oxaspiro[4.5]decan-8-yl]-1H-pyrazol-4-yl]methyl)[2-(methylamino)ethyl]amine hydrochloride]	< 100 nM	28.9 nM	< 3000 nM	76.5 nM
CN(CCN)Cc1c[nH]nc1[C@H]1CC[C@@]2(CC1)CC(C)(C)CO2 [Compound 207]	< 100 nM		< 3000 nM	12.1 nM
CN(CCN)Cc1c[nH]nc1[C@H]1CC[C@]2(CC1)CC(C)(C)CO2 [Compound 208]	< 100 nM	12.8 nM	< 3000 nM	67.2 nM
CNCCN(C)Cc1c[nH]nc1[C@H]1CC[C@H](C(=O)N(C)CCC(C)C)CC1 [Compound 209]	< 100 nM	43.9 nM	< 3000 nM	916 nM
CNCCN(C)Cc1c[nH]nc1[C@H]1CC[C@@H](C(=O)N(C)CCC(C)C)CC1 [Compound 210]	< 100 nM	22.9 nM	< 3000 nM	280 nM
CNCCN(C)Cc1c[nH]nc1[C@H]1CC[C@H](C(=O)NCCOc2ccccc2)CC1 [Compound 211]	< 100 nM	10 nM	< 3000 nM	155 nM
CNCCN(C)Cc1c[nH]nc1[C@H]1CC[C@@H](N(CCOc2ccccc2)C(=O)CCOC)CC1 [Compound 218]	< 100 nM	67 nM		
CNCCN(C)Cc1c[nH]nc1[C@H]1CC[C@@H](N(CCOc2ccccc2)C(=O)CCCOC)CC1 [Compound 228]	< 100 nM	100 nM		
CNCCN(C)Cc1c[nH]nc1[C@H]1CC[C@@H](N(CCCOC)C(=O)CC(C)C)CC1 [Compound 242]	< 100 nM	83.7 nM		
CNCCN(C)Cc1c[nH]nc1[C@H]1CC[C@H](N(CCCOC)C(=O)CCC(C)C)CC1 [Compound 243]	< 100 nM	70.8 nM		
CNCCN(C)Cc1cnn(C)c1[C@H]1CC[C@@]2(CC1)CC(C)(C)CO2 [Compound 245, Methyl ([2-[methyl([1-methyl-5-[(5S,8S)-3,3-dimethyl-1-oxaspiro[4.5]decan-8-yl]-1H-pyrazol-4-yl]methyl)amino]ethyl])amine trifluoroacetic acid salt]	< 100 nM	18.3 nM		
CCN(C(=O)CCC(C)C)[C@H]1CC[C@H](c2n[nH]cc2CN(C)CCNC)CC1 [Compound 250]	< 100 nM	42.4 nM		
CNCCN(C)Cc1c[nH]nc1C1CCC(C)(C)[C@@H](C(=O)NCCC(C)C)C1 (stereo partly drawn) [Compound 263, (1S)-2,2-dimethyl-5-[4-({methyl[2-(methylamino)ethyl]amino}methyl)-1H-pyrazol-3-yl]-N-(3-methylbutyl)cyclohexane-1-carboxamide]	< 100 nM	35.1 nM		
CNCCN(C)Cc1c[nH]nc1C1CCC(C)(C)[C@H](C(=O)NCCOC)C1 (some centres unmarked) [Compound 264]	101 to 1000 nM	181 nM		
CNCCN(C)Cc1c[nH]nc1C1CCC(C)(C)[C@H](C(=O)NCCCOC)C1 (some centres unmarked) [Compound 265]	101 to 1000 nM	171 nM		
CNCCN(C)Cc1c[nH]nc1C1CCC(C)(C)[C@@H](C(=O)NCC(C)C)C1 (some centres unmarked) [Compound 266]	< 100 nM	63.1 nM		
CNCCN(C)Cc1c[nH]nc1C1C[C@H](C(=O)N(C)CC(C)C)C(C)(C)[C@H](C(=O)N(C)CC(C)C)C1 (some centres unmarked) [Compound 267]	3010 to 10000 nM	5910 nM		
